Data: patent US5786344A, “Camptothecin drug combinations and methods with reduced side effects” (priority 1995, dated 1998)
“Also recorded” adds a separate entry of the source. Like-named read-outs stand apart in the source and are kept apart here. *1 amine or outer side, *2 acyl side, *3 side chain or, on linkers, in order; H or OH if unused. Where a SMILES comes first, the peptide text is derived from it. Bridges are numbered along the chain shown (N, C = ends). Roman numbers before positions name the chains, in order. [ ]: non-standard residue; d: D form. Actinocin(9to1) = Cc1c2oc3c(C)ccc(C(=O)[*:1])c3nc-2c(C(=O)[*:2])c(N)c1=O; NMeV = CN[C@H](C(=O)O)C(C)C; Sar = CNCC(=O)O

Experiments:
[1] = gastrointestinal tract or solution; cited from earlier work
[2] = cited from earlier work
[3] = tested on: human and murine cell lines; conditions: 4-6 μM; cited from earlier work
glucuronosyltransferase = conditions: cited from earlier work
[4] = Phase I pharmacokinetics of CPT-11, SN-38 and SN-38G in plasma/urine after 90 min iv infusion
Method: All patients met the standard laboratory criteria including criteria for adequate organ function. Informed, written consent was obtained from all patients prior to their first dose of CPT-11. The drug was given in 500 cc normal saline by intravenous infusion over 90 minutes on a weekly basis for four doses in a sixweek cycle. […] A second cycle was given with the same dose and schedule used during cycle 1. […] Patients who experienced dose limiting neutropenia were eligible to receive G-CSF at 5 μg/kg/day according to the criteria defined below.
To determine drug and metabolite levels, heparinized blood samples obtained on the first cycle of therapy, were centrifuged and the plasma was stored at -70° C. until analysis. CPT (camptothecin, 1 μg/ml, obtained from the National Cancer Institute, Bethesda, Md.) was used as an internal standard. One hundred μl of plasma was extracted with 2 ml of methanol, centrifuged at 2500×g for 10 min and the supernatant was evaporated to dryness. Reconstitution was done with 200 μl of methanol containing 0.1% 10M HCL (pH~2.0). For the estimation of SN-38G, plasma samples were extracted as described above. Prior to reconstitution, the samples were incubated with 1000 U of glucuronidase (Sigma Chemical Co., St. Louis, Mo.) for 2 hours at 37° C.
Analysis was done using a C18 column (μBondapak, 10 μm, 3.9×300 mm; Waters Associates, Milford, Mass.) preceded by a Novapak C18 guard column. […] Detection was monitored by a Hitachi F1050 Fluorescence detector (Hitachi Instruments Inc., Naperville, Ill.) with a λex at 375 nm and λem at 566 nm. […] SN-38G concentrations were determined as the increase in SN-38 concentrations following incubation with glucuronidase.
The plasma concentration-time data of CPT-11, SN-38 and SN-38G were analyzed by non-compartmental analysis using PCNONLIN (SCI, Lexington, Ky.). The area under the plasma concentration-time curve (AUC) from time zero (predose) to the time of the last quantifiable concentration (AUCt) was calculated by the trapezoidal rule. The AUC extrapolated to time infinity (AUCt →.infin.) was estimated by dividing the last quantifiable concentration by the terminal rate constant obtained by the log-linear regression of the terminal elimination phase. The AUC was the summation of AUCt and AUCt→.infin.. Clearance (CL) was estimated as the ratio of the dose and AUC.
The present study employed this principle to obtain an estimate of SN-38 excreted in the bile. Since glucuronidation is the major pathway of elimination of SN-38, the fraction of SN-38 not conjugated would be primarily excreted in the bile. The net biliary concentration of SN-38 would then be a resultant of its formation and elimination. This concentration was expressed as the "biliary ratio" which was the ratio of AUC of SN-38 to SN-38G. To control for individual variability in the amount of available drug, the ratio was multiplied by the AUC of CPT-11 to obtain a "biliary index" of SN-38.
The nonparametric Mann-Whitney test was employed to test for differences in pharmacokinetic outcomes between two patient groups, defined by the worst severity of diarrhea experienced in the first two cycles of CPT-11 treatment. Statistical tests were performed in the Number Cruncher Statistical System (Dr. Jerry Hintz, Kaysville, Utah). A two-sided significance level of less than or equal to 0.05 was considered statistically significant.

[5] = cited from earlier work; remark: listed apart in the source
[6] = nude mice, accumulation in the intestine; cited from earlier work
p-glycoprotein [7] = target: T1, p-glycoprotein (Homo sapiens, UniProt P08183); assay: in vitro; format: binding
T1 construct: membrane vesicles from the multidrug resistant breast tumor cell line; endogenous in cells; host or cells: MCF-7/Adr (multidrug resistant human breast cancer cell line), membrane vesicles
T1 sequence (P08183 whole entry): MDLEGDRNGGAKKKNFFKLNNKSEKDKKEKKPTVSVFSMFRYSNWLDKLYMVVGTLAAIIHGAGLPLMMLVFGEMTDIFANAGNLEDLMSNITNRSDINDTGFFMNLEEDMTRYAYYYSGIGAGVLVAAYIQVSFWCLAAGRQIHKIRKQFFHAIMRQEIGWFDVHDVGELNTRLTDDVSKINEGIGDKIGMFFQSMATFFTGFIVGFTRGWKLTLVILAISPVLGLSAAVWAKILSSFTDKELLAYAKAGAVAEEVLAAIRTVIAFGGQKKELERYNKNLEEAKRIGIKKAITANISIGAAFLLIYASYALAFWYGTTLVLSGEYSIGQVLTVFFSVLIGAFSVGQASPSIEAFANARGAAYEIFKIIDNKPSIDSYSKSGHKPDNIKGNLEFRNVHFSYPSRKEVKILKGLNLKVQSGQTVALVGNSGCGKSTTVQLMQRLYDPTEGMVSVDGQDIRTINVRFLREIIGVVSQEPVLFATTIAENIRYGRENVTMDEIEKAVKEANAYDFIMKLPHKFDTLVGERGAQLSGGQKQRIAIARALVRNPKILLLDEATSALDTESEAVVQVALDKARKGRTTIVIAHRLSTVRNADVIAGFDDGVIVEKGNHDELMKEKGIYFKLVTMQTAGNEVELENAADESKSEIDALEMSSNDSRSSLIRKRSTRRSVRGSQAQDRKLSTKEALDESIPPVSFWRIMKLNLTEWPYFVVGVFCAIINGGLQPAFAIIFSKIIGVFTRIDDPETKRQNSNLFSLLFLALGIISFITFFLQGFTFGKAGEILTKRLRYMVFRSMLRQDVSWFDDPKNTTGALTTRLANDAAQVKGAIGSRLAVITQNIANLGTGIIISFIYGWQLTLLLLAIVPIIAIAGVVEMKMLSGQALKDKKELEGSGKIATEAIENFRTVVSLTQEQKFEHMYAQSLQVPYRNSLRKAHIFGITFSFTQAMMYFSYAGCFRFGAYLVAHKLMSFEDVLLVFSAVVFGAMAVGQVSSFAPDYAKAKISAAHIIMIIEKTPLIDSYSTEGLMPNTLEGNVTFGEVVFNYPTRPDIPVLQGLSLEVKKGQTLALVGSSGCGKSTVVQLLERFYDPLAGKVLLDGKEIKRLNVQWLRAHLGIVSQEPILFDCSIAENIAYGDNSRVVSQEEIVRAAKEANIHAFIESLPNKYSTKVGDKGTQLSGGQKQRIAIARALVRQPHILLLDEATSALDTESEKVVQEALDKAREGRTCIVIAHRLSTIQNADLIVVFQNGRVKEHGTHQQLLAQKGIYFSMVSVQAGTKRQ
Excerpt: FIG. 5. […]. Membrane vesicles from the multidrug resistant human breast cancer tumor cell line […] were used. […].

tumors = conditions: in vivo; cited from earlier work
[8] = animal studies; cited from earlier work
p-glycoprotein [9] = conditions: rat, in vivo
Method: Animal protocol: Female Wistar rats (~200 gm) having a permanent catheter installed in the right jugular vein were obtained from Charles River Breeding Laboratories (Wilmington, Mass.).
The catheter was flushed with 500 μl of physiologic saline after each drug administration.
After each sample the catheter was flushed with an equal volume of physiologic saline. The samples were immediately centrifuged at 2500×g for 10 minutes and the plasma obtained was stored at -70° C. until analysis.
Data Analysis: The plasma concentration-time profile of the control and pretreated groups of rats were analyzed using non-compartmental methods (PCNONLIN, SCI, Lexington, Ky.). […] The nonparametric Mann-Whitney test was used to test for differences in AUC between the control and pretreated groups.

p-glycoprotein [10] = conditions: cited from earlier work
p-glycoprotein [11] = conditions: renal tubules; cited from earlier work
[12] = tested on: outwardly-rectifying chloride channel; conditions: 50 μM; cited from earlier work
p-glycoprotein [13] = conditions: cited from earlier work; remark: listed apart in the source
p-glycoprotein [14] = conditions: cited from earlier work; remark: listed apart in the source
[15] = cited from earlier work; remark: listed apart in the source
[16] = tested on: breast, ovarian, non-small cell lung, colorectal, gastric and renal cell carcinomas; conditions: in vitro; cited from earlier work
plasma proteins = conditions: cited from earlier work

O.O=P1(N(CCCl)CCCl)NCCCO1 (stereo not drawn) [Cyclophosphamide, 2H-1,3,2-Oxazaphosphorin-2-amine, N,N-bis(2-chloroethyl)tetrahydro-, 2-oxide, monohydrate]
stability [1]: stable in the gastrointestinal tract

CC/C(=C(\c1ccccc1)c1ccc(OCCNC)cc1)c1ccccc1 [N-desmethyltamoxifen]
concentration ([2]; read-out: plasma level, oral tamoxifen 150 mg/m2 twice a day after 400 mg/m2 loading dose): 6 µM | enhancement of intracellular concentration of cytotoxic drugs [3]: three-fold to ten-fold

Cc1c(-c2cnccn2)ssc1=S [Oltipraz, 4-methyl-5(2-pyrazinyl)-3H-1,2-dithiole-3-thione]
induction of phase II enzymes / glucuronidation (glucuronosyltransferase): inducer of GST and UDP-glucuronosyltransferase

CCc1c2c(nc3ccc(O)cc13)-c1cc3c(c(=O)n1C2)COC(=O)[C@]3(O)CC [SN-38, 7-ethyl-10-hydroxy-camptothecin]
increase in AUC SN-38 from secondary peak ([4]; in vivo): ~12% | increase of AUC from 100 to 175 mg/m^2 ([4]; in vivo): 3.7 fold | interpatient variability of AUC (percent coefficient of variation) ([4]; in vivo): 2-44% | terminal half-life of closed ring forms ([2]; human, in vivo): 7.6 to 8.8 h | biliary radioactivity excreted over 24 h as ([5]; rat, in vivo): 9% | cause of diarrhea [6]: responsible for the diarrhea | substrate of p-glycoprotein (p-glycoprotein [7]): substrates of p-glycoprotein | inhibition at 100 µM (p-glycoprotein [7]; human, mcf-7/adr membrane vesicles): 60% | potency relative to the parent drug CPT-11 (tumors): 600-1000 times | route of excretion [8]: excreted primarily into bile

CCc1c2c(nc3ccc(O[C@@H]4O[C@H](C(=O)O)[C@@H](O)[C@H](O)[C@H]4O)cc13)-c1cc3c(c(=O)n1C2)COC(=O)[C@]3(O)CC [SN-38G]
increase of AUC from 100 to 175 mg/m^2 ([4]; 1.75 fold dose range): 2.7 fold | urinary estimates of SN-38G, fold lower in patients with grade 3-4 diarrhea (average) ([4]; grade 3-4 diarrhea): 2.5 fold | increase in AUC between 145 and 175 mg/m^2 ([4]; in vivo): no increase | Overall Increase in AUC SN-38G (p-glycoprotein [9]): 1.93 fold | biliary radioactivity excreted over 24 h as ([5]; rats, 24 h): 22%

Cc1c2oc3c(C)ccc(C(=O)N[C@@H]4C(=O)N[C@H](C(C)C)C(=O)N5CCC[C@H]5C(=O)N(C)CC(=O)N(C)[C@@H](C(C)C)C(=O)O[C@@H]4C)c3nc-2c(C(=O)N[C@@H]2C(=O)N[C@H](C(C)C)C(=O)N3CCC[C@H]3C(=O)N(C)CC(=O)N(C)[C@@H](C(C)C)C(=O)O[C@@H]2C)c(N)c1=O [actinomycin D] (I: T[dV]P[Sar][NMeV] / II: T[dV]P[Sar][NMeV]; ester I:1-I:C, II:1-II:C; linker I:N-II:N via Actinocin(9to1))
inhibition of / interaction with p-glycoprotein (p-glycoprotein [10]): inhibitor of p-glycoprotein | CNS / blood-brain barrier penetration ([2]; human, in vivo): does not pass the blood-brain barrier | excreted intact into the bile ([2]; human, in vivo): Half of the dose | urinary excretion ([2]; human, in vivo): 10% | half-life ([2]; plasma/serum/terminal or elimination half-life): about 36 hr | inhibition of p-glycoprotein-mediated transport (p-glycoprotein [11]): inhibitors

COc1cc2c(c(OC)c1OC)-c1ccc(OC)c(=O)cc1[C@@H](NC(C)=O)CC2 [colchicine]
inhibition of / interaction with p-glycoprotein (p-glycoprotein [10]): inhibiting p-glycoprotein; also recorded: binding to p-glycoprotein | oral absorption ([2]; oral): well-absorbed | block of chloride channel / transport associated with p-glycoprotein [12]: blocked | inhibition of p-glycoprotein-mediated transport (p-glycoprotein [11]): inhibitors

C=C[C@H]1C[N@@]2CC[C@H]1C[C@@H]2[C@@H](O)c1ccnc2ccc(OC)cc12 [quinidine]
inhibition of / interaction with p-glycoprotein (p-glycoprotein [10]): binds to p-glycoprotein and inhibits photo-labeling | oral absorption ([2]; human, in vivo, po): 90% | elimination by hepatic biotransformation ([2]; human, liver): 50-60% | inhibition of digoxin transport (p-glycoprotein [13]): inhibited digoxin transport | inhibition of amphiphilic cation transport (p-glycoprotein [14]): inhibit

COC(=O)[C@H]1[C@H]2C[C@@H]3c4[nH]c5cc(OC)ccc5c4CCN3C[C@H]2C[C@@H](OC(=O)c2cc(OC)c(OC)c(OC)c2)[C@@H]1OC [reserpine, Yohimban-16-carboxylic acid, 11,17-dimethoxy-18-[(3,4,5-trimethoxybenzoyl)oxy]-, methyl ester, (3β,16β,17α,18β,20α)-]
inhibition of / interaction with p-glycoprotein (p-glycoprotein [10]): binds to p-glycoprotein and inhibits photo-labeling | inhibition of photoaffinity labeling of p-glycoprotein (p-glycoprotein [10]; photolabeling): showed inhibition | persistence of effects after discontinuation ([15]; oral): ≤ 4 weeks | oral absorption ([2]; human, in vivo, po): absorbed poorly and erratically | inhibition of digoxin transport (p-glycoprotein [13]): inhibited

CC/C(=C(\c1ccccc1)c1ccc(OCCN(C)C)cc1)c1ccccc1 [tamoxifen]
dose-limiting toxicity ([15]; oral 150 mg/m2 twice a day): without dose-limiting toxicity | bioavailability / dose reaching the systemic circulation ([2]; human, in vivo, po): 25-100% | half-life, single dose ([2]; human, in vivo): 18 h | half-life, steady state ([2]; human, in vivo): 7 h | enhancement of intracellular concentration of cytotoxic drugs [3]: three-fold to ten-fold

CC[C@@]1(O)C(=O)OCc2c1cc1n(c2=O)Cc2cc3c(CN(C)C)c(O)ccc3nc2-1 [topotecan]
activity in clonogenic assay [16]: exhibited activity in breast, ovarian, non-small cell lung, colorectal, gastric and renal cell carcinomas

CC[C@]1(O)C[C@@H]2CN(CCc3c([nH]c4ccccc34)[C@@](C(=O)OC)(c3cc4c(cc3OC)N(C)[C@H]3[C@@](O)(C(=O)OC)[C@H](OC(C)=O)[C@]5(CC)C=CCN6CC[C@]43[C@@H]65)C2)C1 [vinblastine]
inhibition of / interaction with p-glycoprotein (p-glycoprotein [10]): p-glycoprotein inhibitor; also recorded: interacted with p-glycoprotein | plasma half-life, first phase ([2]; human, in vivo, iv): approximately 1 hours | plasma half-life, second phase ([2]; human, in vivo, iv): ~20 h | Cmax ([2]; human, in vivo): ~400 nM | excreted unchanged (urine) ([2]; human, in vivo): Approximately 15% | fecal excretion ([2]; human, in vivo): about 10% | block of chloride channel / transport associated with p-glycoprotein [12]: blocked | plasma protein binding (plasma proteins): bind to plasma proteins | inhibition of p-glycoprotein-mediated transport (p-glycoprotein [11]): inhibitors
